Assay results taken from patent publication US8426447B2, “Spiro-tricyclic ring compounds as beta-secretase modulators and methods of use” (Amgen Inc., priority 2008, dated 2013).
Where “and” joins values, the source holds several entries; their conditions need not be identical. Equal entries are not always repeated.

Columns and labels:
BACE1 [1] = biological target: T1, BACE1 (Homo sapiens, UniProt P56817); assay: In Vitro BACE Cell-based Assay (HEK cell assay): Aβ40 in conditioned medium of cells stably expressing Amyloid Precursor Protein, sandwich ELISA
Outline: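 APP-expressing cells were cultured 24 h in DMEM/10% FBS, then treated 24 h with compounds in 10-point dose response (top 100 μM or 10 μM; 0.1% DMSO final). Secreted Aβ40 was quantified by sandwich ELISA (pAb40 capture, biotinylated 6E10 detection, Europium TRF); IC50 from percent inhibition versus concentration.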

BACE1 [2] = biological target: T1, BACE1; assay: In Vitro Enzymatic BACE FRET (Fluorescence Resonance Energy Transfer) Assay; assay type: biochemical
Outline: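 Fluorescence read-out after Tris addition raises pH to neutrality and ends the reaction. Before that, a peptide substrate carrying fluorophore and quencher across the BACE cleavage site (50 nM) is incubated with enzyme for one hour at pH 4.2 in acetate containing 10% DMSO and sub-micellar genapol.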

[3] = Table IV, class symbols, read-out: HEK cell assay
[4] = Table IV, class symbols, read-out: BACE1 FRET assay
[5] = HEK cell-based assay, Aβ40 in conditioned medium, IC50 class symbols, read-out: HEK cell assay
[6] = in vitro BACE FRET enzyme assay, IC50 class symbols, read-out: BACE1 FRET assay
[7] = Table III, IC50's in uM ranges, read-out: HEK cell assay
[8] = Table III, IC50's in uM ranges, read-out: BACE1 FRET assay
[9] = Table II, Aβ40, 24 h incubation, read-out: HEK cell assay
[10] = Table II, read-out: BACE1 FRET assay

T1 sequence (P56817 46-501, species assumed): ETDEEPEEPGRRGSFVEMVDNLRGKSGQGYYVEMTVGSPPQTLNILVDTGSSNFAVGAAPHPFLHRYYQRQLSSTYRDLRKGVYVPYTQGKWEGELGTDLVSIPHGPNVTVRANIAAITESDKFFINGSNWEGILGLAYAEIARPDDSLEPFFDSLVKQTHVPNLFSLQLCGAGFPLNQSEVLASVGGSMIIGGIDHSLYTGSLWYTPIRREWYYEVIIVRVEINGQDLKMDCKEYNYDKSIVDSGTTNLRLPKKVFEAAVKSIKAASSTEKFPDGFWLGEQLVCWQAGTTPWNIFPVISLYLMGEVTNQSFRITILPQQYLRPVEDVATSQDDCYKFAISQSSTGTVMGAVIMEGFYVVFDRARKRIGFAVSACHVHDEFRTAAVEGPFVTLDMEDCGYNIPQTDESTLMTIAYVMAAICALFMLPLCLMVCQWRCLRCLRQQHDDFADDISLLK

## CC(=O)COc1ccc2c(c1)[C@]1(COC(N)=N1)c1cc(-c3cccnc3)ccc1O2 [compound 923]
BACE1 [1]; [3]
  IC50: < 0.1 µM
BACE1 [2]; [4]
  IC50: < 0.1 µM

## NC1=N[C@@]2(CO1)c1cc(-c3cncnc3)ccc1Oc1c(F)cc(OCC3CC3(F)F)cc12 (stereo partly shown) [compound 507]
BACE1 [1]; HEK cells, read-out: HEK cell assay
  IC50: < 0.1 µM
BACE1 [2]; read-out: BACE1 FRET assay
  IC50: < 0.1 µM

## NC1=N[C@@]2(CO1)c1cc(-c3cccnc3)ccc1Oc1ccc(C3CC3)cc12 [compound 758]
BACE1 [1]; read-out: HEK cell assay
  IC50: 0.1 to 1 µM
BACE1 [2]; read-out: BACE1 FRET assay
  IC50: < 0.1 µM

## NC1=N[C@]2(CO1)c1cc(Br)ccc1Oc1ccc(-c3cncnc3)cc12 [compound 686]
BACE1 [1]; read-out: HEK cell assay
  IC50: 0.1 to 1 µM
BACE1 [2]; read-out: BACE1 FRET assay
  IC50: 0.1 to 1 µM

## NC1=N[C@@]2(CO1)c1cc(-c3cccnc3)ccc1Oc1cnc(-c3cccnc3)cc12 [compound 902]
BACE1 [1]; [3]
  IC50: < 0.1 µM
BACE1 [2]; [4]
  IC50: < 0.1 µM

## Cc1cc(-c2cc3c(cn2)Oc2ccc(-c4cccnc4F)cc2[C@@]32COC(N)=N2)ccn1 [compound 429]
BACE1 [1]; HEK cell assay (uM), HEK cells
  IC50: < 0.1 µM
BACE1 [2]; BACE1 FRET assay (uM)
  IC50: < 0.1 µM

## CCOCC(=O)Nc1ccc2c(c1)[C@@]1(COC(N)=N1)c1cc(OC)ccc1O2 [compound 376]
BACE1 [1]; [5]
  IC50: 0.1 to 1 µM
BACE1 [2]; [6]
  IC50: 0.1 to 1 µM

## COC(C)(C)COc1ccc2c(c1)[C@]1(COC(N)=N1)c1cc(-c3cccnc3)ccc1O2 [compound 149]
BACE1 [1]; [7]
  IC50: < 0.1 µM
BACE1 [2]; [8]
  IC50: < 0.1 µM

## NC1=N[C@@]2(CO1)c1cc(-c3cccnc3F)ccc1Oc1cnc(C3CCOCC3)cc12 [Example 495, (5S)-7-(2-fluoro-3-pyridinyl)-3-(tetrahydro-2H-pyran-4-yl)spiro[chromeno[2,3-c]pyridine-5,4′-[1,3]oxazol]-2′-amine]
BACE1 [1]; HEK cell assay (uM), HEK cells
  IC50: < 0.1 µM
BACE1 [2]; BACE1 FRET assay (uM)
  IC50: < 0.1 µM

## Cc1occc1-c1ccc2c(c1)[C@@]1(COC(N)=N1)c1cc(OCC(C)(C)C)ccc1O2 [compound 739]
BACE1 [1]; read-out: HEK cell assay
  IC50: 1 to 5 µM
BACE1 [2]; read-out: BACE1 FRET assay
  IC50: 0.1 to 1 µM

## CCCOc1cc2c(cc1F)Oc1ccc(-c3ccc(F)nc3)cc1[C@]21COC(N)=N1 [compound 921]
BACE1 [1]; [3]
  IC50: 1 to 5 µM
BACE1 [2]; [4]
  IC50: 0.1 to 1 µM

## CC(C)(C#N)COc1ccc2c(c1)[C@]1(COC(N)=N1)c1cc(-c3cncnc3)cnc1O2 [compound 167]
BACE1 [1]; [7]
  IC50: 0.1 to 1 µM
BACE1 [2]; [8]
  IC50: < 0.1 µM

## CC(C)(C)CCOc1ccc2c(c1)[C@]1(COC(N)=N1)c1cc(-c3cncnc3)ccc1O2 [Example 70, (4S)-2′-(3,3-dimethylbutoxy)-7′-(5-pyrimidinyl)spiro[1,3-oxazole-4,9′-xanthen]-2-amine]
BACE1 [1]; [9]
  IC50: 0.1 to 1 µM
BACE1 [2]; [10]
  IC50: < 0.1 µM

## CC(C)(C)CC(=O)c1ccc2c(c1)[C@]1(COC(N)=N1)c1cc(-c3cncnc3)ccc1O2 [compound 48, 1-((4S)-2-amino-7′-(5-pyrimidinyl)spiro[1,3-oxazole-4,9′-xanthen]-2′-yl)-3,3-dimethyl-1-butanone]
BACE1 [1]; [9]
  IC50: 0.1 to 1 µM and < 0.1 µM
BACE1 [2]; [10]
  IC50: 0.1 to 1 µM and < 0.1 µM

## CC(C)(C)C#Cc1cnc2c(c1)[C@@]1(COC(N)=N1)c1cc(-c3cccnc3)ccc1O2 [185a]
BACE1 [1]; [7]
  IC50: 1 to 5 µM
BACE1 [2]; [8]
  IC50: 0.1 to 1 µM

## CC(C)(C)C#Cc1ccc2c(c1)[C@]1(COC(N)=N1)c1cc(C#CC(C)(C)C)ncc1O2 [compound 847]
BACE1 [1]; [3]
  IC50: 1 to 5 µM
BACE1 [2]; [4]
  IC50: 0.1 to 1 µM

## COc1cc(F)c2c(c1)[C@@]1(COC(N)=N1)c1cc(-c3cncnc3)cnc1O2 [compound 585]
BACE1 [1]; [3]
  IC50: > 5 µM
BACE1 [2]; [4]
  IC50: > 5 µM

## CC(C)(C)COc1ccc2c(c1)[C@]1(COC(N)=N1)c1cc(-c3ccc4[nH]ccc4c3)ccc1O2 [Example 73, (4S)-2′-(2,2-dimethylpropoxy)-7′-(1H-indol-5-yl)spiro[1,3-oxazole-4,9′-xanthen]-2-amine]
BACE1 [1]; [9]
  IC50: 1 to 5 µM
BACE1 [2]; [10]
  IC50: 0.1 to 1 µM

## COc1ccc2c(c1)[C@]1(COC(N)=N1)c1c(ccc(-c3cncnc3)c1F)O2 [compound 814]
BACE1 [1]; [3]
  IC50: 0.1 to 1 µM
BACE1 [2]; [4]
  IC50: < 0.1 µM

## CC(C)OCCOc1ccc2c(c1)[C@]1(COC(N)=N1)c1cc(-c3cccnc3)ccc1O2 [compound 181]
BACE1 [1]; [7]
  IC50: 0.1 to 1 µM
BACE1 [2]; [8]
  IC50: < 0.1 µM

## CC(C)(C)/C=C/c1cnc2c(c1)[C@]1(COC(N)=N1)c1cc(-c3cncnc3)ccc1O2 [compound 379]
BACE1 [1]; [5]
  IC50: < 0.1 µM
BACE1 [2]; [6]
  IC50: < 0.1 µM

## N#Cc1ccccc1Oc1ccc2c(c1)[C@]1(COC(N)=N1)c1cc(-c3cncnc3)ccc1O2 [compound 965]
BACE1 [1]; read-out: HEK cell assay
  IC50: > 5 µM
BACE1 [2]; read-out: BACE1 FRET assay
  IC50: 0.1 to 1 µM

## CC(C)(C)CC(=O)c1ccc2c(c1)[C@@]1(COC(N)=N1)c1cc(-c3ccc(F)nc3)ccc1O2 [150b]
BACE1 [1]; [7]
  IC50: 0.1 to 1 µM
BACE1 [2]; [8]
  IC50: < 0.1 µM

## NC1=N[C@]2(CO1)c1cc(Br)ccc1Oc1cnc(Cl)cc12 [compound 549]
BACE1 [1]; [3]
  IC50: > 5 µM
BACE1 [2]; [4]
  IC50: > 5 µM

## COc1cncc(-c2ccc3c(c2)[C@@]2(COC(N)=N2)c2cc(C#CC(C)(C)OC)cnc2O3)c1 [compound 602]
BACE1 [1]; [3]
  IC50: < 0.1 µM
BACE1 [2]; [4]
  IC50: < 0.1 µM

## COc1ccc2c(c1)[C@]1(COC(N)=N1)c1cc(NC(=O)c3ccc(Cl)nc3)ccc1O2 [compound 617]
BACE1 [1]; [3]
  IC50: 1 to 5 µM
BACE1 [2]; [4]
  IC50: 1 to 5 µM
